Tests used:
Type in all cases: in vivo, human
[1] = test system: acne papule biopsies, Diseases or Functions Annotation; experiment: Ingenuity Pathway Analysis, diseases or functions activation of the trifarotene signature; details: trifarotene treated area (day 27) vs papule before treatment
Protocol: Functional and network analysis were generated with the Ingenuity Pathway Analysis software (QIAGEN® Inc., qiagenbioinformatics.com/products/ingenuity-pathway-analysis), and with Open Targets (opentargets.org/). IPA was used to identify canonical pathways, diseases and functions, and gene networks related to differentially expressed genes in acne lesions and post-lesional skin after treatment with trifarotene or vehicle. In addition, gene set enrichment analysis was performed with the R package FGSEA (version 1.12.0) using the hallmark and reactome gene sets. A comparative analysis was performed to identify expression patterns: For this analysis, the following comparisons were made to develop characteristic expression patterns: (a) Papule before treatment vs non-involved skin was used to derive an acne signature; (b) Resolved papule zone after treated with vehicle vs papule before treatment was used to derive signature of spontaneously resolved papule; and (c) Resolved papule zone after treatment with trifarotene vs papule before treatment to determine trifarotene treatment signature. […]

[2] = test system: acne papule biopsies, gene sets; experiment: Gene set enrichment analysis (FGSEA, hallmark and reactome gene sets); details: inflammatory response, TNFA signaling via NF-kB, neutrophil degranulation, chemokines and receptors; collagen degradation, extracellular matrix degradation/organization
Protocol: Functional and network analysis were generated with the Ingenuity Pathway Analysis software (QIAGEN® Inc., qiagenbioinformatics.com/products/ingenuity-pathway-analysis), and with Open Targets (opentargets.org/). IPA was used to identify canonical pathways, diseases and functions, and gene networks related to differentially expressed genes in acne lesions and post-lesional skin after treatment with trifarotene or vehicle. In addition, gene set enrichment analysis was performed with the R package FGSEA (version 1.12.0) using the hallmark and reactome gene sets.

[3] = test system: cell types in skin biopsies (macrophage subsets, B cells, melanocytes, venular cells); experiment: Cell type scoring (cell-type gene signature expression scores in biopsies)
Text: Single-Cell Analysis and Cell Marker Definition: Single-cell RNAseq data from Hughes et al. was used to determine the major cell types present in skin biopsies and the associated cell markers. Acne and normal samples from GSE150672 were downloaded and analyzed using the Seurat package. Data were normalized, scaled, and log-transformed. The most variable genes were selected based on their expression and dispersion. To reduce dimensionality, principal component analysis (PCA) was applied. The first eight principal components were used to cluster the cells using the graph-based approach FindClusters function in Seurat, with a resolution parameter of 0.4. Graphical representation of cell clusters was achieved using UMAP. A combination of known markers and differentially expressed genes was used to characterize cell clusters. Major cell type markers retained for scoring analysis included: B cells: MS4A1, CD79A; Fibroblasts: DCN, COL6A2, APOD, CFD, IGFBP5, COL1A2, COL1A1, COL3A1; Keratinocytes: KRT5, KRT1, KRT14, KRT15, S100A2, KRT6A, HOPX, KRT10, DSP; Langerhans cells: CD207; Mast cells: CPA3, IL1RL1, CTSG, TPSAB1, GATA2; Melanocytes: MLANA, MITF, PMEL, DCT; Myeloid cells: CD68, CTSS; Schwann cells: SCN7A; T cells: CD3D, TRBC2, IL7R, PTPRC, CXCR4; Venular cells: SELE, CD93, TM4SF1, A2M, RCAN1; Vascular smooth muscle cells (VSMC): TAGLN, RGS5, MYH11, ACTA2, MYL9.
Macrophage Gene Signatures: Gene markers specific to each class of macrophage were derived from the literature. For M0, M1 and M2 macrophages, the markers described in Newman et al. (Robust enumeration of cell subsets from tissue expression profiles, Nat Methods, 12:453-7, 2015) were used. For SPP1 activated macrophages, the markers from Morse et al. (Proliferating SPP1/MERTK-expressing macrophages in idiopathic pulmonary fibrosis. Eur Respir J., 54:1802441) were used. Final markers were as listed. M0 macrophage: ACP5, BHLHE41, C5AR1, CCDC102B, CCL22, CCL7, COL8A2, CSF1, CXCL3, CXCL5, CYP27A1, DCSTAMP, GPC4, HK3, IGSF6, MARCO, MMP9, NCF2, PLA2G7, PPBP, QPCT, SLAMF8, SLC12A8, TNFSF14, VNN1. M1 macrophage: ACHE, APOBEC3A, APOL3, APOL6, ARRB1, CCL19, CCL5, CCR7, CD38, CD40, CHI3L1, CXCL10, CXCL11, CXCL13, CXCL9, CYP27B1, DHX58, HESX1, IDO1, IFI44L, IL2RA, KIAA0754, KYNU, LAG3, LAMP3, LILRA3, LILRB2, NOD2, PLA1A, PTGIR, RASSF4, RSAD2, SLAMFI, SLC2A6, SOCS1, TLR7, TNFAIP6, TNIP3, TRPM4. M2 macrophage: AIF1, ALOX15, CCL13, CCL14, CCL23, CD209, CD4, CFP, CLEC10A, CLEC4A, CRYBB1, FES, FRMD4A, FZD2, GSTT1, HRH1, HTR2B, MS4A6A, NME8, NPL, P2RY13, PDCD1LG2, RENBP, WNT5B. SPP1 macrophage: MERTK, CD14, SPP1, CD68, LYZ.
Cell Type Scoring: Each cell type gene signature was used to define a cell type average gene expression in each of our clinical study samples, calculated as the average of the log 2 expression values of these markers. Boxplots were used to visualize the distribution of cell type gene expression scores between clinical groups. Statistical significance was assessed using Wilcoxon rank sum test. Graphs were generated using the ggpubr data visualization library.

Q: What does the source list for `CC(C)(C)c1cc(-c2cc(-c3ccc(C(=O)O)cc3)ccc2OCCO)ccc1N1CCCC1` [Trifarotene, 3″-tert-Butyl-4′-(2-hydroxy-ethoxy)-4″-pyrrolidin-1-yl-[1,1′,3′,1″ ]terphenyl-4-carboxylic acid]?
A: Activation z.score Trifarotene signature: Flux of Ca2+ [1]: −2.838; gene set enrichment: inflammatory modules and tissue remodeling gene sets [2]: downregulates; venular cells ([3]; following trifarotene treatment): trend toward a decrease; M0, M1 and M2 macrophages ([3]; spontaneously resolved vs trifarotene treated biopsies): not significantly different; increase in melanocytes ([3]; trifarotene treated vs spontaneously resolved acne lesions): greater in the trifarotene treated samples; B cell frequencies ([3]; trifarotene treatment vs. spontaneous resolution): greater impact in reducing B cell frequencies; frequencies of SPP1+ macrophages ([3]; trifarotene treatment vs. spontaneously resolved acne papules, P=0.040): significantly reduced
